Common to all, as to assay type: cell-based
One assay concerns PC-3. Description: Wound healing assay in 2D monolayer culture (IncuCyte). To be noted: for wound healing 50% cut-off concentration: 2D monolayer, printed in Fig 4D; for reduction of wound closure: at 300 nM, after 64 hours, 2D. As to the method:
Cells were cultured on ImageLock plates (Essen Bioscience, Ann Arbor, MI, USA) until fully confluent and scratched with a WoundMaker instrument (Essen Bioscience). All detached cells were removed by aspiration and medium supplemented with experimental compounds was added. Wound closure was monitored and quantified with the IncuCyte live-cell imager (Essen Bioscience).
A) Graph showing the transition of PC-3 spheroids from symmetrical acini to irregular invasive structures over 6 days, as measured by general symmetry (roundness %). […] B) Conventional wound healing assay performed in monolayer culture over a period of 64 hours. Wound closure is measured as relative wound density i.e. percentage of original wound area reclaimed by migrating cells. […] (EPS) Click here for additional data file.

The next assay has as its system LAPC-4. Description: Secondary 3D screen (spheroid size, complexity, cell death). To be noted: yellow and red clusters. From the text:
Next, the 25 selected betulin derivatives depicted in Figs 1–3 including control compounds were again thoroughly tested across the same panel of prostate-derived cell lines already used in the preliminary, 2D high-throughput screen. The resulting dendrograms were either generated separately for each cell line (S4 Fig), combined into a single dendrogram (Fig 5A), or shown as reduced organoid sizes (area; Fig 5B).
Fig 5 Secondary 3D screens. Experimental betulin derivatives and control compounds were tested across a panel of prostate cancer lines (LNCaP, LAPC-4) and non-transformed, prostate epithelial cells (EP156T) in 3D culture. A) The dendrogram is based on three main morphological parameters and combines all data from primary and secondary 3D screens. […] B) Boxplots showing the impact of selected compounds on spheroid size (Area). Data scaling: as described in Fig 4 C) Effects of all betulin derivatives and control compounds on cell death (number of dead cells).
All 3D cultures were done in growth factor-free Matrigel Basement-membrane Matrix (Corning Inc., New York, NY, USA) using 96-well Angiogenesis μ-plates (ibidi GmbH, Munich, Germany) as described before.[38] “Sandwich” assays in short: bottom wells of cooled Angiogenesis plates were filled with 10 μL 4 mg/mL Matrigel, centrifuged for 20 min 200 g and incubated at 37°C temperature for approximately 30–60 min or until the ECM had polymerized. 1,000–1,500 cells were mixed in 2 mg/mL ECM-medium, and 20 μL of cell suspension was added in each well. The plates were centrifuged for 10 min at 100 g, or until the cells had settled on top of the lower ECM. Finally, the outer wells and side reservoirs were filled with water for humidification, and the culture plates placed into the incubator for 3–4 h or overnight. The following day, 60 μL of cell culture medium were added; refreshed every third day by carefully aspirating the medium. This “sandwich” setting allows almost unifocal alignment of cells and 3D structures in a single optical plane, thus reducing the time required for confocal stack imaging.
All control compounds were purchased from Selleck (Munich, Germany), except for staurosporine (Sigma-Aldrich, St. Louis, MO, USA) and Y-27632 (Tocris, Bristol, UK) and dissolved in dimethyl sulfoxide (DMSO) as a vehicle at 10 mM. In the primary and secondary 3D screens, experimental and control compound exposures were performed in triplicates. Four concentrations for each compound were applied (0.03, 0.1, 0.3 and 1 μM). Compound treatments were initiated four days after cell embedding, and continued for six days after which spheroids were stained and imaged.
Supplementary file pone.0126111.s004.eps: S4 Fig Secondary screens. Dendrograms for A) LNCaP, B) LAPC-4, and C) Ep156T betulin screens in 3D culture have been constructed using three main read-outs: spheroid size, spheroid complexity, and cell death. […] (EPS) Click here for additional data file.

For another assay, the system named is PC3 cells. Description: Cell morphology and actin cytoskeleton in 2D monolayer culture. To be noted: PC3, 2D, 72h. As to the method:
As a control, we also tested morphologies treated with the same panel of anti-invasive compounds 4, 5, 6, 16 and 20 as well as betulin (1) on PC3 cells grown in 2D monolayer cultures (S9 Fig).
Supplementary file pone.0126111.s009.tif: S9 Fig Morphologies of PC-3, LNCaP and Ep156T cells in 2D monolayer culture, exposed 72h to selected betulin derivatives. Actin cytoskeleton (filamentous or F- actin) is stained green (LifeAct), nuclei with a red dye (confocal microscope images, 40× objective, scale bar shown for each panel on the right lower corner). (TIF) Click here for additional data file.

Assay [1] has as its system actin cytoskeleton of PC-3, LNCaP and Ep156T spheroids. Kind of assay: F-actin cytoskeleton (phalloidin staining) in 3D spheroids. To be noted: after 48 hours of exposure; seen in Ep156T acini and PC-3 spheroids, not LNCaP. From the text:
[…] […] For phenotypic comparisons, we tested a panel of reference compounds targeting Akt, Rac, ROCK, Src, and other pathways, broadly linked to the actin cytoskeleton.
Fig 8 3D morphologies of prostate spheroids, exposed to selected betulin derivatives and captured with a confocal microscope. Actin cytoskeleton (filamentous or F-actin) is stained green (phalloidin), nuclei with a red dye (confocal microscope images, 40× objective, scale bar shown for each panel on the right lower corner).

Assay [2] deals with PC-3, LNCaP, LAPC-4, Ep156T. Description: Primary and secondary 3D screens combined across the cell line panel. To be noted: cell lines other than PC-3, 3D, 300 nM or lower (except compound 15). Here is the method: Fig 5 Secondary 3D screens. Experimental betulin derivatives and control compounds were tested across a panel of prostate cancer lines (LNCaP, LAPC-4) and non-transformed, prostate epithelial cells (EP156T) in 3D culture. A) The dendrogram is based on three main morphological parameters and combines all data from primary and secondary 3D screens. Effective compound treatments are indicated in red and yellow, yellow being the most invasion-specific. B) Boxplots showing the impact of selected compounds on spheroid size (Area). Data scaling: as described in Fig 4 C) Effects of all betulin derivatives and control compounds on cell death (number of dead cells).
In order to assist functional categorization of our betulin derivatives, we combined all data into a single dendrogram, shown in Fig 5A. In addition, multiparametric representation of all experimental data as a single heatmap is highly informative (S5 Fig) and a potent way to illustrate the effects of compounds on growth, structural complexity and cell death across multiple cell lines. […] However, at lower concentrations, these compounds may act as potent and specific inhibitors of cell invasion and motility.
Supplementary file pone.0126111.s005.eps: S5 Fig Primary and secondary screens. […] The main read-outs (Area = Size, Complexity = Invasiveness, Red = Cell death) are shown in their own columns. Data scaling: DMSO control has been given a value 0 whereas paclitaxel control is valued -100 or 100 depending on the read-out. Color key is located in the upper right corner. (EPS) Click here for additional data file.
Supplementary file pone.0126111.s006.tif: S6 Fig Confocal images from primary and secondary betulin screens. Viable cells have been stained with calcein AM (green) and dead cells with ethidium homodimer-2 (red) (5× objective, maximum intensity projections, scale bar = 100 μm). (TIF) Click here for additional data file.

As for `C=C(C)[C@@H]1CC[C@]2(C(=O)O)CC[C@]3(C)C(CCC4[C@@]5(C)Cc6ncccc6C(C)(C)C5CC[C@]43C)C12` (stereo partly drawn) [Compound 20], in the assay with PC-3, the “wound healing 50% cut-off concentration” value is recorded as “ca. 0.3 μM” and the “reduction of wound closure” value turned out to be 50%. In the assay with LAPC-4, the “efficacy in 3D LAPC-4 culture (dendrogram clusters)” value (“efficacy in 3D LAPC-4 culture” below) is listed as “most active”. The “morphology and actin cytoskeleton of cells in 2D monolayer” value (shortened to “morphology and actin cytoskeleton”) in the assay on PC3 cells was “No morphologies and visible effects on the actin cytoskeleton”. Also, the “organization of actin cytoskeleton in 3D spheroids” value (shortened to “organization of actin cytoskeleton”) in assay [1] was “effectively disrupted the organization of actin cytoskeleton”. For the same compound, the “effects on the other cell lines at anti-invasive concentrations” value (“effects on the other cell lines” below) in assay [2] is “no noticeable effects on the other cell lines”.
With `C=C(C)[C@@H]1CC[C@]2(C(=O)O)CC[C@]3(C)C(CCC4[C@@]5(C)Cc6cccnc6C(C)(C)C5CC[C@]43C)C12` (stereo partly drawn) [Compound 19], the “efficacy in 3D LAPC-4 culture” value in the assay with LAPC-4 is recorded as “most active”. The “effects on the other cell lines” value in assay [2] was “no noticeable effects on the other cell lines”.
As to `C=C(C)[C@@H]1CC[C@]2(C(=O)O)CC[C@]3(C)C(CCC4[C@@]5(C)Cc6cnoc6C(C)(C)C5CC[C@]43C)C12` (stereo partly drawn) [Compound 5], the “concentration required in 2D culture for effects comparable to 3D” value in the assay on PC-3 (2D wound healing) is “higher than 1 μM”. In addition, the “morphology and actin cytoskeleton” value in the assay on PC3 cells was “No morphologies and visible effects on the actin cytoskeleton”. Further, the “organization of actin cytoskeleton” value in assay [1] is recorded as “effectively disrupted the organization of actin cytoskeleton”.
In the case of `C=C(C)[C@@H]1CC[C@]2(C(=O)O)CC[C@]3(C)C(CCC4[C@@]5(C)Cc6c[nH]nc6C(C)(C)C5CC[C@]43C)C12` (stereo partly drawn) [Compound 6], in the assay with LAPC-4, the “efficacy in 3D LAPC-4 culture” value is reported as “most active”. The “morphology and actin cytoskeleton” value in the assay with PC3 cells is “No morphologies and visible effects on the actin cytoskeleton”. Further, the “organization of actin cytoskeleton” value in assay [1] is listed as “effectively disrupted the organization of actin cytoskeleton”. In addition, in assay [2], the “effects on the other cell lines” value is “no noticeable effects on the other cell lines”.
As to `CC(C)[C@@H]1CC[C@]2(C(=O)O)CC[C@]3(C)C(CCC4[C@@]5(C)Cc6cnoc6C(C)(C)C5CC[C@]43C)C12` (stereo partly drawn) [Compound 4], in the assay on PC-3, the “wound healing 50% cut-off concentration” value was “ca. 0.3 μM” and the “reduction of wound closure” value was found to be 50%. Moreover, in the assay with LAPC-4, the “efficacy in 3D LAPC-4 culture” value is “most active”. The “morphology and actin cytoskeleton” value in the assay with PC3 cells is “No morphologies and visible effects on the actin cytoskeleton”. Moreover, the “effects on the other cell lines” value in assay [2] is “no noticeable effects on the other cell lines”.
In the case of `CC(=O)O[C@H]1C(=O)[C@@]2(C)[C@H]([C@H](OC(=O)c3ccccc3)[C@]3(O)C[C@H](OC(=O)[C@H](O)[C@@H](NC(=O)c4ccccc4)c4ccccc4)C(C)=C1C3(C)C)[C@]1(OC(C)=O)CO[C@@H]1C[C@@H]2O` [Paclitaxel, paclitaxel, reference compound], the “efficacy in 3D LAPC-4 culture” value in the assay on LAPC-4 is “efficacy of all positive controls”.

Values taken from article PMC4428838, “Optimization of Invasion-Specific Effects of Betulin Derivatives on Prostate Cancer Cells through Lead Development” (PLoS ONE, 2015).
